# Data as given in patent US20260083864A1, “CONTRAST AGENTS FOR USE IN DIAGNOSTIC COMPUTED TOMOGRAPHY IMAGING” (Bayer Aktiengesellschaft, priority 2022, published 2026).
# Columns and labels:
# [1] = Relaxivity measurements at 1.41 T in water; format: physicochemical; conditions: 37° C., normalized to Gd
# Experimental: (§1) Relaxivity measurements at 1.41 T were performed using a MiniSpec mq60 spectrometer (Bruker Analytik, Karlsruhe, Germany) operating at a resonance frequency of 60 MHz and a temperature of 37° C. The T1 relaxation times were determined using the standard inversion recovery (IR) method with a fixed relaxation delay of at least 5×T1. The variable inversion time (TI) was calculated automatically by the standard software of the MiniSpec mq60 (8 steps). The T2 measurements were performed by using a Carr-Purcell-Meiboom-Gill (CPMG) pulse sequence, applying a relaxation delay of at least 5×T1.
# Each relaxivity measurement was performed using three different Gd concentrations (3 concentrations between 0.05 and 2 mM). […] Human plasma preparation: For each experiment fresh blood was taken from a volunteer using 10 mL citrate-tubes (Sarstedt S-Monovette 02.1067.001, 10 mL, Citrate). The 10 mL citrate-tubes were carefully inverted 10 times to mix blood and anticoagulant and centrifuged for 15 min at 1811 g at RT (Eppendorf, Centrifuge 5810R).
# (§2) The relaxivities n (where i=1, 2) were calculated based on the measured relaxation rates Ri in water and plasma: […]
# [2] = Relaxivity measurements at 1.41 T in human plasma; format: physicochemical; conditions: 37° C., normalized to Gd
# Experimental: as §1, with “The” for “Relaxivity measurements at 1.41 T were performed using a MiniSpec mq60 spectrometer (Bruker Analytik, Karlsruhe, Germany) operating at a resonance frequency of 60 MHz and a temperature of 37° C. The”
# Each relaxivity measurement was performed using three different Gd concentrations (3 concentrations between 0.05 and 2 mM).
# as §2
# [3] = biological target: T1, OATP1B1 (Homo sapiens, UniProt Q9Y6L6); test: Uptake into stable transfected OATP1B1 HEK 293 cells; format: cell-based; conditions: for Inhibition Rifampicine: uptake into OATP1B1-HEK 293 cells
# T1 sequence (Q9Y6L6 1-691): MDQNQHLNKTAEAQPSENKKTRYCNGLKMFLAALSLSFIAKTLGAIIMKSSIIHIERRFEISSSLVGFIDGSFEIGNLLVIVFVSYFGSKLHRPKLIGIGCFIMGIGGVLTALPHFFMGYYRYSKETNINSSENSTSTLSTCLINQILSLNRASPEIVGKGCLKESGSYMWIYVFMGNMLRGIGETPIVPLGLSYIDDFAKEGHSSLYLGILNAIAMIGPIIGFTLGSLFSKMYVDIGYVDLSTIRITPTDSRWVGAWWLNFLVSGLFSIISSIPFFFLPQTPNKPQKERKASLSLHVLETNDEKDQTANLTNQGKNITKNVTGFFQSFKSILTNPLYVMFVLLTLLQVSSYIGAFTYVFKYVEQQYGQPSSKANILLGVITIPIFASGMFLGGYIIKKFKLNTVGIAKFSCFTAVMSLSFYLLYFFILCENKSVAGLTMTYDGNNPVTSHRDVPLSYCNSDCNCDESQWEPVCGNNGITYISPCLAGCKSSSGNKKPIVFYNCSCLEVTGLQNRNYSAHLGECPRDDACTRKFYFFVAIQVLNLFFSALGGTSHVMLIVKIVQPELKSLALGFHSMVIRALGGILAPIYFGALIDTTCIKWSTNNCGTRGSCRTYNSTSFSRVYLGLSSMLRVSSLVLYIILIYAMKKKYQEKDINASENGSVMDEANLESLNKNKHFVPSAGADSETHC
# Experimental: (§3) Cryopreserved cells were shortly thawed in water bath and diluted in 10 mL warm culture medium (37° C.). After medium change the cells were grown for 3d in a 25 cm^2 cell culture flask. After 3 to 5d the cells were transferred into 75 cm^2 flasks. […] All test items were prepared in transport buffer at a final concentration of 100 M from stock solutions (180 to 500 mM concentration). The OATP1B1 HEK 293 cells were incubated with test solutions (test item in transport buffer 500 L) for 40 min on a thermoshaker without shaking (PHMP, Fa. Grant Bio). Triplicates were performed for each test item. After incubation the cells were washed with 2 mL of cold PBS (+) buffer (Dulbeccos PBS+, Fa. Gibco). […] As a reference standard Gd-EOB-DTPA (gadoxetate) is used in the same well plate.
# [4] = Partition coefficient (log P butanol/buffer); format: physicochemical
# [5] = tested on: freshly isolated rat hepatocytes; test: Uptake into freshly isolated rat hepatocytes; conditions: for Uptake rat hepatocytes: 100 μmol Gd/L, 10 min, 37° C., relative to RC1 (Gd-EOB-DTPA); for Inhibition Rifampicine: rat hepatocyte uptake, test item and Rifampicine 1:1, each 100 μM
# [6] = biological target: T2, OATP1B3 (Homo sapiens, UniProt Q9NPD5); test: Uptake into stable transfected OATP1B3 HEK 293 cells; format: cell-based; conditions: for Inhibition Rifampicine: uptake into OATP1B3-HEK 293 cells
# T2 sequence (Q9NPD5 1-702): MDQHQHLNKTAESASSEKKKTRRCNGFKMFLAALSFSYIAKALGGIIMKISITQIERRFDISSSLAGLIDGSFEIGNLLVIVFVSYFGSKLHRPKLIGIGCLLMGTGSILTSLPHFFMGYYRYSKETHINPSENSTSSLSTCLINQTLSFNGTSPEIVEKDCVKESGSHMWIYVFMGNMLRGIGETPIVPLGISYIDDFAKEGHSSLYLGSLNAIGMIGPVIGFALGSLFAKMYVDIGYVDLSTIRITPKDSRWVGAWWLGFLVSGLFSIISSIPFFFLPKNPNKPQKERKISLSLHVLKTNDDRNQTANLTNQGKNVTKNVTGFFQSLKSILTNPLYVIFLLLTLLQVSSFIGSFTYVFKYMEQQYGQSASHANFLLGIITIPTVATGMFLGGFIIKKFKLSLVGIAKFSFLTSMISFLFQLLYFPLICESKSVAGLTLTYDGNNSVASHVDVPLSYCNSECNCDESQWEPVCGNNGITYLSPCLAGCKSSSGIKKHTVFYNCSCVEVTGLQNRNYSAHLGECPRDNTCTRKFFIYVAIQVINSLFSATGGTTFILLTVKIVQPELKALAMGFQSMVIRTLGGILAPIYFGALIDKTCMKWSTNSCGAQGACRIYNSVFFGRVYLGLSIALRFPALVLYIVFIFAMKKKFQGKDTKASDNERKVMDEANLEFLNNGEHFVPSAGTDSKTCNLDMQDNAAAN
# Experimental: as §3, with “100 µM” for “100 M”, “The OATP1B3” for “The OATP1B1”, “500 μL)” for “500 L)”
# [7] = Water solubility in aqueous buffer
# Experimental: The solid compounds were added stepwise to the buffer solution. More substance is added once all the suspended material is dissolved until an equilibrium between undissolved and dissolved substance is reached. The suspension was mixed using a shaker (Heidolph Reax 2000) and treated 5 min in an ultrasound bath (Bandelin, Sonorex Super RK255H).
# [8] = 1-butanol / 50 mM Tris-HCl, pH 7.4, room temperature
# [9] = aqueous buffer 10 mM Tris-HCl, pH 7.4, 20° C.
# [10] = 40 min incubation, relative to RC1 (Gd-EOB-DTPA)
SMILES,r1 water [1] [L/mmol/s],r1 human plasma [2] [L/mmol/s],Inhibition Rifampicine [3] [% inhibition],"Log P (partition coefficient butanol/buffer) [4, 8]",Uptake rat hepatocytes [5],Inhibition Rifampicine [5] [% inhibition],Inhibition Rifampicine [6] [% inhibition],"Solubility [7, 9] [mM]","Uptake into OATP1B1-HEK 293 cells [3, 10]","Uptake into OATP1B3-HEK 293 cells [6, 10]",Log P (partition coefficient butanol/buffer) ([4]; pH 7.4),Solubility ([7]; pH 7.4) [mM]
"CCOCCOCCOc1ccc(CCC[C@@H](C(=O)O)N2CCN(C(CO)C(=O)[O-])CCN(C(CO)C(=O)[O-])CCN(C(CO)C(=O)[O-])CC2)cc1.[Gd+3] (mixture of isomers) [Example 21, gadolinium-2,2′,2″-{10-[(1S)-1-carboxy-4-{4-[2-(2-ethoxyethoxy)ethoxy]phenyl}butyl]-1,4,7,10-tetraazacyclododecane-1,4,7-triyl}tris(3-hydroxypropanoate)]",5.4,8.5,75,−1.03,81 % of RC1,91,94,>368,,,,
"O=C([O-])CN1CCN(C(Cc2ccc(OCC(F)(F)C(F)F)cc2)C(=O)O)CCN(CC(=O)[O-])CCN([C@@H](CO)C(=O)[O-])CC1.[Gd+3] (mixture of isomers) [Example 33, gadolinium (2S)-2-[4,10-bis(carboxylatomethyl)-7-{1-carboxy-2-[4-(2,2,3,3-tetrafluoropropoxy)phenyl]ethyl}-1,4,7,10-tetraazacyclododecan-1-yl]-3-hydroxypropanoate]",4.2,11.7,88,−0.55,82 % of RC1,94,98,>29,367 % of RC1,71 % of RC1,,
"CCOCCOCCOc1ccc(CCC[C@@H](C(=O)O)N2CCN(C(CCO)C(=O)[O-])CCN(C(CCO)C(=O)[O-])CCN(C(CCO)C(=O)[O-])CC2)cc1.[Gd+3] (mixture of isomers) [Example 36, gadolinium-2,2′-{4-[(1S)-1-carboxy-4-{4-[2-(2-ethoxyethoxy)ethoxy]phenyl}butyl]-10-[1-carboxylato-3-hydroxypropyl]-1,4,7,10-tetraazacyclododecane-1,7-diyl}bis(4-hydroxybutanoate)]",6.1,8.5,,,,,,,,,−1.08,85
"CCOCCOCCOc1ccc(CC(C(=O)O)N2CCN(CC(=O)[O-])CCN(C(C)C(=O)[O-])CCN(CC(=O)[O-])CC2)cc1.[Gd+3] (single isomer, unassigned) [Example 5, gadolinium 2-[7-(1-carboxy-2-{4-[2-(2-ethoxyethoxy)ethoxy]phenyl}ethyl)-4,10-bis(carboxylatomethyl)-1,4,7,10-tetraazacyclododecan-1-yl]propanoate]",4.7,6.9,,−1.52,28 % of RC1,92,,>59,,,,
"CCOCCOCCOc1ccc(CCC[C@@H](C(=O)O)N2CCN([C@@H](CO)C(=O)[O-])CCN([C@H](CO)C(=O)[O-])CCN([C@@H](CO)C(=O)[O-])CC2)cc1.[Gd+3] [Example 35, gadolinium (2S,2'S)-2,2′-{4-[(1S)-1-carboxy-4-{4-[2-(2-ethoxyethoxy)ethoxy]phenyl}butyl]-10-[(1R)-1-carboxylato-2-hydroxyethyl]-1,4,7,10-tetraazacyclododecane-1,7-diyl}bis(3-hydroxypropanoate)]",5.6,8.6,87,−1.02,,,98,>164,,,,
"CCOCCOCCOc1ccc(CC(C(=O)O)N2CCN(C(CCO)C(=O)[O-])CCN(C(CCO)C(=O)[O-])CCN(C(CCO)C(=O)[O-])CC2)cc1.[Gd+3] (stereo not shown) [Example 37, gadolinium-2,2′-{4-[1-carboxy-2-{4-[2-(2-ethoxyethoxy)ethoxy]phenyl}ethyl]-10-[1-carboxylato-3-hydroxypropyl]-1,4,7,10-tetraazacyclododecane-1,7-diyl}bis(4-hydroxybutanoate)]",6.4,8.4,,−1.16,26 % of RC1,37,,18,,,,
